{"source": "patent US20110300142A1", "about": "“USE OF ZEBURALINE FOR THE TREATMENT OF AUTOIMMUNE DISEASES OR IMMUNE REJECTION OF TRANSPLANTS” (priority 2007, published 2011)", "key": {"human lymphocytes": {"system": "human lymphocytes", "experiment": "Proliferation of stimulated human lymphocytes", "assay_type": "cell-based", "description": "(§1) FIG. 4A show proliferation of stimulated human lymphocytes after five days in culture in the presence of zebularine at different concentrations, FIG. 4B show restoration of inhibited proliferation of stimulated human lymphocytes after five days in culture in the presence of zebularine at two different concentrations and the IDO inhibitor 1-methyl tryptophane at 100 μM and FIG. 4C show proliferation of stimulated rat spleen lymphocytes after four days in culture in the presence of zebularine at different concentrations.\n(§2) In an experiment the inventors tested the immunogenicity of genetically engineered rat colon cancer cells expressing rat interleukin 12. These cancer cells have repeatedly been used to immunize rats that create a strong immune response towards the rat tumour cells. […] This was congruent with the changes in expression of IDO (FIG. 3). […] There is a very reproducible induction of IDO (about 20-fold) from different human leukocyte cultures with a slight interindividual variation."}, "IDO mRNA expression": {"system": "IDO mRNA expression", "experiment": "qRT-PCR analysis of IDO mRNA expression in rat colon cancer cell lines", "assay_type": "cell-based", "details": "for increase of the IDO mRNA level: 100 μM zebularine, normalized to HPRT", "description": "The values given are normalized in relation to the HPRT expression values.\n(§3) The treatment with 100 μM of zebularine induced IDO mRNA expression in all three cell lines. A 48-fold increase of the IDO mRNA level in the H1D2WT cell line, a 24-fold increase in the H1D2IL12C46 cell line and a 14-fold increase in the H1D2IL18C2 cell line were detected. […] The inventors know that the 100 μM treatment of tumour cells strongly induces the production of the immunosuppressive molecule IDO but the induction of other T cell immunosuppressive molecules might also be involved, although no evidence has been found for an effect on prostaglandine E2 (PGE2) or nitric oxide (NO) production. It seems that the 100 μM zebularine treatments are not affecting the PGE2 production, the NO production, or the production of tumour antigens."}, "p16 gene expression": {"system": "p16 gene expression", "details": "zebularine 100-500 μM; cited from earlier work"}, "[1]": {"details": "mouse, cited from earlier work"}, "[2]": {"details": "cited from earlier work"}, "[3]": {"details": "compared to azacytidine or 2′-deoxy-azacytidine; cited from earlier work"}, "tumour cells": {"system": "tumour cells", "experiment": "PGE2, NO and tumour antigen production of treated tumour cells", "assay_type": "cell-based, rat", "details": "100 μM zebularine treatment", "description": "as §3"}, "rat colon cancer cells": {"system": "rat colon cancer cells", "experiment": "Immunization of rats with zebularine-pretreated tumour cells; proliferative response of spleen cells / immunogenicity", "assay_type": "in vivo", "description": "as §3, §2"}, "bladder carcinoma cells": {"system": "bladder carcinoma cells", "details": "zebularine 500-1000 mg/kg; cited from earlier work"}, "IDO [4]": {"system": "IDO", "experiment": "IDO production in rat spleen cells", "assay_type": "cell-based", "details": "similar treatment (100 μM)", "description": "as §2"}, "IDO [5]": {"system": "IDO", "experiment": "IDO induction in human buffy coat leukocyte cultures", "assay_type": "cell-based", "details": "different human leukocyte cultures, slight interindividual variation", "description": "as §2"}, "rat spleen lymphocytes": {"system": "rat spleen lymphocytes", "experiment": "Proliferation of stimulated rat spleen lymphocytes", "assay_type": "cell-based", "details": "rat spleen cells", "description": "as §1, §2"}}, "data": [{"smiles": "Cn1cc(C[C@H](N)C(=O)O)c2ccccc21", "note": "[1-methyl tryptophan, reference compound]", "values": [{"measurement": "effect on zebularine-induced suppression of proliferation", "setting": "human lymphocytes; IDO inhibitor added to zebularine-treated stimulated human lymphocytes, 100 μM, five days", "result": "can be blocked"}]}, {"smiles": "O=c1ncccn1[C@@H]1O[C@H](CO)[C@@H](O)[C@H]1O", "note": "[zebularine, 1-(β-D-Ribofuranosyl)-1,2-dihydropyrimidin-2-one]", "values": [{"measurement": "polyclonal lymphocyte proliferation", "setting": "human lymphocytes; human buffy coat leukocytes", "result": "strong suppression"}, {"measurement": "production of IDO", "setting": "IDO mRNA expression; 100 μM", "result": "strongly enhance"}, {"measurement": "increase of the IDO mRNA level", "setting": "IDO mRNA expression; H1D2IL12C46 cell line", "result": 24, "unit": "fold"}, {"measurement": "increase of the IDO mRNA level", "setting": "IDO mRNA expression; H1D2IL18C2 cell line", "result": 14, "unit": "fold"}, {"measurement": "increase of the IDO mRNA level", "setting": "IDO mRNA expression; H1D2WT cell line", "result": 48, "unit": "fold"}, {"measurement": "p16 gene expression", "setting": "p16 gene expression", "result": "induces p16 gene expression"}, {"measurement": "fraction of dose absorbed in tissues", "setting": "[1]; i.v., 100 mg/kg, plasma, red blood cells, liver, kidney, spleen, heart, lung, muscle, Duodenum, Jejunum, Ileum, Colon and Carcass", "result": "about 60%"}, {"measurement": "bioavailability after i.v. injection", "setting": "[1]; i.v.", "result": "good"}, {"measurement": "bioavailability for Fat, Brain, Testes, Cecum and Stomach", "setting": "[1]; i.v.", "result": "less"}, {"measurement": "turnover in tissues", "setting": "[1]; many tissues", "result": "quite fast"}, {"measurement": "metabolites", "setting": "[1]", "result": "uridine, uracil and dihydrouracil"}, {"measurement": "solubility in water", "setting": "[2]", "result": "soluble in water"}, {"measurement": "stability", "setting": "[3]", "result": "stable"}, {"measurement": "toxicity", "setting": "[3]", "result": "not very toxic"}, {"measurement": "NO production", "setting": "tumour cells", "result": "not affecting"}, {"measurement": "PGE2 production", "setting": "tumour cells", "result": "not affecting"}, {"measurement": "production of tumour antigens", "setting": "tumour cells", "result": "not affecting"}, {"measurement": "immunogenicity of rat colon cancer cells expressing rat interleukin 12 when used for immunization", "setting": "rat colon cancer cells; cells pre-treated with 100 μM zebularine", "result": "less immunogenic"}, {"measurement": "proliferative response of non-adherent spleen cells stimulated with tumor cells in vitro", "setting": "rat colon cancer cells; rats immunized with tumour cells pretreated with 100 μM zebularine", "result": "very weak proliferative response"}, {"measurement": "in vivo p16 gene expression", "setting": "bladder carcinoma cells", "result": "induced"}, {"measurement": "tumour volume", "setting": "bladder carcinoma cells", "result": "reduced"}, {"measurement": "IDO production", "setting": "IDO [4]", "result": "enhanced IDO production"}, {"measurement": "induction of IDO", "setting": "IDO [5]", "result": "about 20 fold"}, {"measurement": "polyclonal lymphocyte proliferation", "setting": "rat spleen lymphocytes", "result": "strong suppression"}]}]}
